Data published in US20050267156A1, “Broadspectrum 2-amino-benzothiazole sulfonamide hiv protease inhibitors” (Tibotec Pharmaceuticals Ltd., priority 2002, published 2005).
Structures can show the parent of a compound that is named as a salt. Where two headings read alike, the source gives them in different places.

What was measured:
[1] = Toxicity on mock-infected cells (MTT); format: cell-based; conditions: human
Protocol: (§1) HIV- or mock-infected MT4 cells were incubated for five days in the presence of various concentrations of the inhibitor. At the end of the incubation period, the replicating virus in the control cultures has killed all HIV-infected cells in the absence of any inhibitor. Cell viability is measured by measuring the concentration of MTT, a yellow, water soluble tetrazolium dye that is converted to a purple, water insoluble formazan in the mitochondria of living cells only. Upon solubilization of the resulting formazan crystals with isopropanol, the absorbance of the solution is monitored at 540 nm. The values correlate directly to the number of living cells remaining in the culture at the completion of the five-day incubation. The inhibitory activity of the compound was monitored on the virus-infected cells and was expressed as EC50 and EC90. These values represent the amount of the compound required to protect 50% and 90%, respectively, of the cells from the cytopathogenic effect of the virus. […] The selectivity index (SI) (ratio CC50/EC50) is an indication of the selectivity of the anti-HIV activity of the inhibitor. Wherever results are reported as e.g. pEC50 or pCC50 values, the result is expressed as the negative logarithm of the result expressed as EC50 or CC50 respectively.

HIV-1 strain LAI = experiment: Cellular anti-HIV assay (MT4/MTT), wild type; format: cell-based; conditions: MT4 cells, read-out: WT (pEC50) (converted)
Protocol: as §1, with “The compounds of the present invention were examined for anti-viral activity in a cellular assay. […] The cellular assay was performed according to the following procedure. HIV-” for “HIV-”, “At the end of the incubation period, the replicating virus in the control cultures has killed all HIV-infected cells in the absence of any inhibitor.” left out

mutant HIV strain D = experiment: microbe, parasite or virus in culture; format: cell-based; conditions: for fold resistance Strain D: FR=EC50 (mutant strain)/EC50 (HIV-1 strain LAI); for EC50: Human immunodeficiency virus 1, MT4, read-out: pEC50 Strain D, mutant HIV strain D, MT4 cells (converted)
Protocol: as §1, with “At the end of the incubation period, the replicating virus in the control cultures has killed all HIV-infected cells in the absence of any inhibitor.” left out

mutant HIV strain E = experiment: microbe, parasite or virus in culture; format: cell-based; conditions: for fold resistance Strain E: FR=EC50 (mutant strain)/EC50 (HIV-1 strain LAI); for EC50: Human immunodeficiency virus 1, MT4, read-out: pEC50 Strain E, mutant HIV strain E, MT4 cells (converted)
Protocol: as §1, with “At the end of the incubation period, the replicating virus in the control cultures has killed all HIV-infected cells in the absence of any inhibitor.” left out

mutant HIV strain C = experiment: microbe, parasite or virus in culture; format: cell-based; conditions: for fold resistance Strain C: FR=EC50 (mutant strain)/EC50 (HIV-1 strain LAI); for EC50: Human immunodeficiency virus 1, MT4, read-out: pEC50 Strain C, mutant HIV strain C, MT4 cells (converted)
Protocol: as §1, with “At the end of the incubation period, the replicating virus in the control cultures has killed all HIV-infected cells in the absence of any inhibitor.” left out

mutant HIV strain F = experiment: microbe, parasite or virus in culture; format: cell-based; conditions: for fold resistance Strain F: FR=EC50 (mutant strain)/EC50 (HIV-1 strain LAI); for EC50: Human immunodeficiency virus 1, MT4, read-out: pEC50 Strain F, mutant HIV strain F, MT4 cells (converted)
Protocol: as §1, with “At the end of the incubation period, the replicating virus in the control cultures has killed all HIV-infected cells in the absence of any inhibitor.” left out

mutant HIV strain B = experiment: microbe, parasite or virus in culture; format: cell-based; conditions: for fold resistance Strain B: FR=EC50 (mutant strain)/EC50 (HIV-1 strain LAI); for EC50: Human immunodeficiency virus 1, MT4, read-out: pEC50 Strain B, mutant HIV strain B, MT4 cells (converted)
Protocol: as §1, with “At the end of the incubation period, the replicating virus in the control cultures has killed all HIV-infected cells in the absence of any inhibitor.” left out

mutant HIV strain A = experiment: microbe, parasite or virus in culture; format: cell-based; conditions: for fold resistance Strain A: FR=EC50 (mutant strain)/EC50 (HIV-1 strain LAI); for EC50: Human immunodeficiency virus 1, MT4, read-out: pEC50 Strain A, mutant HIV strain A, MT4 cells (converted)
Protocol: as §1, with “At the end of the incubation period, the replicating virus in the control cultures has killed all HIV-infected cells in the absence of any inhibitor.” left out

Pharmacokinetics in rats = format: in vivo, Whistar rats; conditions: Whistar, rat, blood, 10 mpk, read-out: Cmax
Protocol: The pharmacokinetic properties of some compounds of formula (I) were tested on rats and dogs. The compounds were evaluated in Whistar rats, source Iffa Credo, weighing approximately 350 g. Before dosing the animals were fasted overnight (approximately 12 h fasting period). The compounds were dissolved in DMSO or PEG 400. The results represented in the table concern the results from the oral or intra-peritoneal dosing of the compounds. Blood was sampled at 30 min, 1 h, 2 h, 3 h, no pre-dose sample was taken. The amount of the compound in the biological sample was determined using LC-MS. In the table below “or” means oral dosing, “ip” means intraperitoneal dosing, “mpk” means mg per kilogram.

[2] = Human immunodeficiency virus 1, wild type HIV-1 strain LAI

| SMILES | CC50 at 5 days [1] [nM] | EC50 (HIV-1 strain LAI; [2]) [nM] | fold resistance Strain D (mutant HIV strain D) | EC50 (mutant HIV strain D) [nM] | fold resistance Strain E (mutant HIV strain E) | EC50 (mutant HIV strain E) [nM] | fold resistance Strain C (mutant HIV strain C) | EC50 (mutant HIV strain C) [nM] | fold resistance Strain F (mutant HIV strain F) | EC50 (mutant HIV strain F) [nM] | fold resistance Strain B (mutant HIV strain B) | EC50 (mutant HIV strain B) [nM] | fold resistance Strain A (mutant HIV strain A) | EC50 (mutant HIV strain A) [nM] | EC50 (HIV-1 strain LAI; Human immunodeficiency virus 1, MT4, wild type HIV-1 strain LAI) [nM] | Cmax (Pharmacokinetics in rats; ip, ip, DMSO, results normalized to 10 mpk) [ng/mL] | Cmax (Pharmacokinetics in rats; po, or, DMSO, results normalized to 10 mpk) [ng/mL] | Cmax (Pharmacokinetics in rats; po, or, PEG400, results normalized to 10 mpk) [ng/mL] |
| --- | --- | --- | --- | --- | --- | --- | --- | --- | --- | --- | --- | --- | --- | --- | --- | --- | --- | --- |
| CNc1nc2ccc(S(=O)(=O)N(CC(C)C)C[C@@H](O)[C@H](Cc3ccccc3)NC(=O)c3ccc(Br)cc3C)cc2s1 [Compound 27, N-{(1S,2R)-1-benzyl-2-hydroxy-3-[isobutyl-(2-methylamino-benzothiazole-6-sulfonyl)-amino]-propyl}-4-bromo-2-methyl-benzamide] | > 100000 | 19.1 | 4.5 | 85.1 | 1.6 | 30.9 | 263.0 | 5010 | 33.9 | 646 | 1.1 | 20.4 | 8.3 | 158 | – | – | – | – |
| Cc1c(N)cccc1C(=O)N[C@@H](Cc1ccccc1)[C@H](O)CN(CC(C)C)S(=O)(=O)c1ccc2nc(N)sc2c1 [Compound 10, 3-amino-N-{(1S,2R)-3-[(2-amino-benzothiazole-6-sulfonyl)-isobutyl-amino]-1-benzyl-2-hydroxypropyl}-2-methyl-benzamide] | 72400 | 9.12 | 2.5 | 22.9 | 1.4 | 13.2 | 1.7 | 15.8 | 9.5 | 87.1 | 1.0 | 9.33 | 9.3 | 85.1 | – | – | – | – |
| Cc1c(F)cccc1C(=O)N[C@@H](Cc1ccccc1)[C@H](O)CN(CC(C)C)S(=O)(=O)c1ccc2nc(N)sc2c1 [Compound 16, N-{(1S,2R)-3-[(2-amino-benzothiazole-6-sulfonyl)-isobutyl-amino]-1-benzyl-2-hydroxypropyl}-3-fluoro-2-methyl-benzamide] | 11200 | 1410 | – | > 100000 | – | > 100000 | – | > 100000 | – | > 100000 | – | > 100000 | – | > 100000 | – | – | – | – |
| CNc1nc2ccc(S(=O)(=O)N(CC(C)C)C[C@@H](O)[C@H](Cc3ccccc3)NC(=O)c3cccc(N)c3C)cc2s1 [Compound 20, 3-amino-N-{(1S,2R)-1-benzyl-2-hydroxy-3-[isobutyl-(2-methylamino-benzothiazole-6-sulfonyl)-amino]-propyl}-2-methyl-benzamide trifluoroacetate] | > 100000 | – | – | 41.7 | – | 25.7 | – | 39.8 | – | 759 | – | 24.5 | – | 316 | 4.79 | – | – | – |
| CNc1nc2ccc(S(=O)(=O)N(CC(C)C)C[C@@H](O)[C@H](Cc3ccccc3)NC(=O)OCc3cnco3)cc2s1 [Compound 28, {(1S,2R)-1-benzyl-2-hydroxy-3-[isobutyl-(2-methylamino-benzothiazole-6-sulfonyl)-amino]-propyl}-carbamic acid oxazol-5-ylmethyl ester] | – | 2.51 | 14.8 | 37.2 | 2.8 | 7.08 | 2.5 | 6.17 | 30.9 | 77.6 | 2.2 | 5.62 | 7.8 | 19.5 | – | 1000 | 540 | 430 |
| CC(C)CN(C[C@@H](O)[C@H](Cc1ccccc1)NC(=O)OCc1cncs1)S(=O)(=O)c1ccc2nc(N)sc2c1 [Compound 3, {(1S,2R)-3-[(2-amino-benzothiazole-6-sulfonyl)-isobutyl-amino]-1-benzyl-2-hydroxypropyl}-carbamic acid thiazol-5-ylmethyl ester] | 74100 | 4.57 | 7.9 | 36.3 | 4.8 | 21.9 | 3.4 | 15.5 | 11.7 | 53.7 | 1.9 | 8.91 | 6.6 | 30.2 | – | – | – | – |
| CC(C)CN(C[C@@H](O)[C@H](Cc1ccccc1)NC(=O)OCc1ccccc1)S(=O)(=O)c1ccc2nc(N)sc2c1 [Compound 7, {(1S,2R)-3-[(2-amino-benzothiazole-6-sulfonyl)-isobutyl-amino]-1-benzyl-2-hydroxypropyl}-carbamic acid benzyl ester] | 46800 | 5.89 | 20.0 | 117 | 7.4 | 43.7 | 5.5 | 32.4 | 131.8 | 776 | 5.0 | 29.5 | 72.4 | 427 | – | – | – | – |
| Cc1c(O)cccc1C(=O)N[C@@H](Cc1ccccc1)[C@H](O)CN(CC(C)C)S(=O)(=O)c1ccc2nc(N)sc2c1 [Compound 11, N-{(1S,2R)-3-[(2-amino-benzothiazole-6-sulfonyl)-isobutyl-amino]-1-benzyl-2-hydroxypropyl}-3-hydroxy-2-methyl-benzamide] | 57500 | 14.5 | 0.6 | 8.32 | 0.5 | 7.24 | 0.5 | 7.59 | 7.1 | 102 | 0.5 | 7.24 | 7.8 | 112 | – | – | – | – |
